Results on five compounds are retold here after paper PMC8880564, “Design, Synthesis, and Biological Evaluation of a Novel VEGFR-2 Inhibitor Based on a 1,2,5-Oxadiazole-2-Oxide Scaffold with MAPK Signaling Pathway Inhibition” (Pharmaceuticals, 2022).

Assay type in all cases: cell-based
The test system of assay [1] is A549/ATCC. Description: NCI-60 one-dose SRB screening. The note with it: Homo sapiens, Non-Small Cell Lung Cancer, 10 µM one dose, 48 h, read-out: growth percentage.
The test system of assay [2] is CAKI-1. Description: NCI-60 one-dose SRB screening. The note with it: Homo sapiens, CAKI-1, Renal Cancer, 10 µM one dose, 48 h, read-out: growth percentage.
Assay [3] deals with HCT-116. Description: NCI-60 one-dose SRB screening. The following applies: Homo sapiens, HCT-116, Colon Cancer, 10 µM one dose, 48 h, read-out: growth percentage.
For assay [4], the system named is HOP-62. The assay can be described thus: NCI-60 one-dose SRB screening. The note with it: Homo sapiens, HOP-62, Non-Small Cell Lung Cancer, 10 µM one dose, 48 h, read-out: growth percentage.
In assay [5] the test system is HOP-92. Description: NCI-60 one-dose SRB screening. The following applies: Homo sapiens, HOP-92, Non-Small Cell Lung Cancer, 10 µM one dose, 48 h, read-out: growth percentage.
Assay [6] concerns HS 578T. The assay can be described thus: NCI-60 one-dose SRB screening. The following applies: Homo sapiens, Breast Cancer, 10 µM one dose, 48 h, read-out: growth percentage.
Assay [7] relates to HT29. Description: NCI-60 one-dose SRB screening. The following applies: Homo sapiens, HT-29, HT29, Colon Cancer, 10 µM one dose, 48 h, read-out: growth percentage.
In assay [8] the test system is MCF7. Description: NCI-60 one-dose SRB screening. The following applies: Homo sapiens, MCF7, Breast Cancer, 10 µM one dose, 48 h, read-out: growth percentage.
Assay [9] relates to NCI-H322M. Description: NCI-60 one-dose SRB screening. The following applies: Homo sapiens, Non-Small Cell Lung Cancer, 10 µM one dose, 48 h, read-out: growth percentage.
Assay [10] has as its system NCI-H460. The assay can be described thus: NCI-60 one-dose SRB screening. The note with it: Homo sapiens, NCI-H460, Non-Small Cell Lung Cancer, 10 µM one dose, 48 h, read-out: growth percentage.
Assay [11] has as its system NCI/ADR-RES. Description: NCI-60 one-dose SRB screening. The note with it: Homo sapiens, Ovarian Cancer, 10 µM one dose, 48 h, read-out: growth percentage.
The subject of assay [12] is OVCAR-8. Description: NCI-60 one-dose SRB screening. The following applies: Homo sapiens, OVCAR-8, Ovarian Cancer, 10 µM one dose, 48 h, read-out: growth percentage.
For assay [13], the system named is RPMI-8226. Description: NCI-60 one-dose SRB screening. The following applies: Homo sapiens, RPMI-8226, Leukemia, 10 µM one dose, 48 h, read-out: growth percentage.
Assay [14] concerns SF-539. The assay can be described thus: NCI-60 one-dose SRB screening. The following applies: Homo sapiens, SF-539, CNS Cancer, 10 µM one dose, 48 h, read-out: growth percentage.
In assay [15] the test system is SK-MEL-28. Description: NCI-60 one-dose SRB screening. The note with it: Homo sapiens, SK-MEL-28, Melanoma, 10 µM one dose, 48 h, read-out: growth percentage.
In assay [16] the test system is SK-MEL-2. Description: NCI-60 one-dose SRB screening. The following applies: Homo sapiens, SK-MEL-2, Melanoma, 10 µM one dose, 48 h, read-out: growth percentage.
Assay [17] relates to SN12C. Description: NCI-60 one-dose SRB screening. The note with it: Homo sapiens, Renal Cancer, 10 µM one dose, 48 h, read-out: growth percentage.
Assay [18] relates to SNB-19. Description: NCI-60 one-dose SRB screening. The following applies: Homo sapiens, SNB-19, CNS Cancer, 10 µM one dose, 48 h, read-out: growth percentage.
For assay [19], the system named is U251. The assay can be described thus: NCI-60 one-dose SRB screening. The note with it: Homo sapiens, U-251, U251, CNS Cancer, 10 µM one dose, 48 h, read-out: growth percentage.
Assay [20] deals with UACC-257. Description: NCI-60 one-dose SRB screening. The note with it: Homo sapiens, UACC-257, Melanoma, 10 µM one dose, 48 h, read-out: growth percentage.
For assay [21], the system named is NCI-59 human cancer cell lines. Description: NCI-60 one-dose SRB screening, full panel and subpanels. The note with it: for activity at 10 µM / inhibition at 10 µM: Homo sapiens; for activity at 10 µM: mean over the full panel, 10 µM one dose, 48 h, SRB, read-out: growth percentage, Mean; for inhibition at 10 µM / mean growth inhibition % (MGI%, GI%): full NCI-59 panel, 10 µM; for inhibition at 10 µM: read-out: mean growth inhibition % (MGI%, GI%).

As to `Cc1nn(-c2ccc(Br)cc2)c2nc(CCl)[nH]c(=O)c12` [13c], the activity at 10 µM was 96.9% in assay [1]; 96.3% in assay [2]; 98.3% in assay [3]; 98.5% in assay [4]; 101% in assay [5]; 108% in assay [6]. Besides, the activity at 10 µM came to 104% in [7]; 82.3% in assay [8]; 104% in assay [9]; 109% in [10]; 102% in assay [11]; 102% in assay [12]. Also, the activity at 10 µM in assay [13] is -53.9%; in assay [14] it was 77%; in assay [15] it was 99.9%; in [16], 103%; in [17] it was 100%; in [18] it was 97.1%. Also, the activity at 10 µM in [19] was 99.7%; in assay [20], 102%; in assay [21], 88.3%.
As to `Cc1nn(-c2ccccc2)c2nc(CNc3ccc(NCc4c(-c5ccccc5)no[n+]4[O-])cc3)[nH]c(=O)c12` [14b, 3-(((4-(((3-methyl-4-oxo-1-phenyl-4,5-dihydro-1H-pyrazolo[3,4-d]pyrimidin-6-yl)methyl)amino)phenyl)amino)methyl)-4-phenyl-1,2,5-oxadiazole 2-oxide], the activity at 10 µM in assay [1] worked out at 74.3%; in [2], 67.1%; in [3], 79%; in assay [4], 110%; in assay [5] it was 93.2%; in assay [6], 104%. For the same compound, the activity at 10 µM came out at 107% in assay [7]; 77% in assay [8]; 89% in assay [9]; 90% in assay [10]; 92.4% in [11]; 117% in [12]. The activity at 10 µM in [13] was determined as 79%; in [14], 99.4%; in [15], 99.2%; in assay [16], 100%; in assay [17], 89.4%; in [18], 101%. The activity at 10 µM is 94.6% in [19], 90.1% in assay [20] and 91.8% in assay [21]. Besides, in [21], the inhibition at 10 µM amounted to 8.22%.
As to `Cc1nc(Nc2ccc(OCc3c(-c4ccccc4)no[n+]3[O-])cc2)c2cnn(-c3ccc(Br)cc3)c2n1` [6f, 3-((4-((1-(4-bromophenyl)-6-methyl-1H-pyrazolo[3,4-d]pyrimidin-4-yl)amino)phenoxy)methyl)-4-phenyl-1,2,5-oxadiazole 2-oxide], the activity at 10 µM in assay [1] was found to be 94.9%; in assay [2], 81.9%; in assay [3] it was 97.5%; in assay [4] it was 110%; in assay [5], 111%; in assay [6], 93.6%. For the same compound, the activity at 10 µM in assay [7] was determined as 97.3%; in assay [8] it was 85.3%; in [9], 90.8%; in [10], 103%; in [11], 106%; in [12], 106%. Moreover, the activity at 10 µM turned out to be 115% in [13]; 94.2% in [14]; 103% in assay [15]; 114% in assay [16]; 94.8% in assay [17]; 91.5% in [18]. Besides, the activity at 10 µM in assay [19] is 99%; in assay [20], 101%; in [21] it was 99.7%. Besides, the “mean growth inhibition % (MGI%, GI%)” value in assay [21] was “no mean growth inhibition percentage”.
Take `[O-][n+]1onc(-c2ccccc2)c1COc1ccc(Nc2ncnc3c2cnn3-c2ccccc2)cc1` [6a, 4-phenyl-3-((4-((1-phenyl-1H-pyrazolo[3,4-d]pyrimidin-4-yl)amino)phenoxy)methyl)-1,2,5-oxadiazole 2-oxide]: the activity at 10 µM in assay [1] is 96%; in assay [2] it was 99.4%; in assay [3] it was 93%; in [4], 107%; in assay [5] it was 115%; in assay [6], 98.7%. For the same compound, the activity at 10 µM in [7] worked out at 96%; in assay [8], 96.1%; in assay [9], 109%; in [10] it was 73.6%; in assay [11], 102%; in [12], 105%. The activity at 10 µM in assay [13] is 104%; in assay [14], 95.7%; in assay [15], 104%; in assay [16], 105%; in assay [17] it was 97.3%; in assay [18] it was 105%. Further, the activity at 10 µM in assay [19] stood at 107%; in assay [20] it was 98.9%; in assay [21] it was 100%. For the same compound, in assay [21], the “mean growth inhibition % (MGI%, GI%)” value was “no mean growth inhibition percentage”.
For `O=c1[nH]c(CNc2ccc(NCc3c(-c4ccccc4)no[n+]3[O-])cc2)nc2c1cnn2-c1ccccc1` [14a, 3-(((4-(((4-oxo-1-phenyl-4,5-dihydro-1H-pyrazolo[3,4-d]pyrimidin-6-yl)methyl)amino)phenyl)amino)methyl)-4-phenyl-1,2,5-oxadiazole 2-oxide], the activity at 10 µM in assay [1] amounted to 63.8%; in assay [2], 55.1%; in [3], 49.6%; in assay [4], 105%; in assay [5], 85.4%; in assay [6] it was 85.8%. Moreover, the activity at 10 µM in [7] was determined as 92%; in assay [8] it was 50%; in assay [9], 80.2%; in assay [10], 64.2%; in assay [11], 79.4%; in assay [12], 109%. Moreover, the activity at 10 µM in assay [13] stood at 61.9%; in assay [14], 92.6%; in assay [15], 77.2%; in [16] it was 77.8%; in [17] it was 79%; in assay [18], 94%. In addition, the results for the activity at 10 µM in [19], in assay [20] and in assay [21] were 76.1%, 39% and 72.1%, respectively. Also, the inhibition at 10 µM in assay [21] is 27.9%.
